According to patent publication US6656906B1, “Hybrid polypeptides with enhanced pharmacokinetic properties” (Trimeris, Inc., priority 1998, dated 2003):

Legend:
[1] = Acute toxicity, IV through jugular cannula; format: in vivo; details: 167 mg/kg (highest dose tested), 0.3 ml over 2-3 min

CC[C@H](C)[C@H](NC(=O)[C@H](CCC(N)=O)NC(=O)[C@H](C)NC(=O)[C@H](CCC(N)=O)NC(=O)[C@H](CCC(=O)O)NC(=O)[C@H](CC(C)C)NC(=O)[C@H](CC(C)C)NC(=O)[C@H](C)NC(=O)[C@@H](NC(=O)[C@@H](NC(=O)[C@H](CCCCN)NC(=O)[C@H](CCC(N)=O)NC(=O)[C@H](CCC(=O)O)NC(=O)[C@H](Cc1c[nH]c2ccccc12)NC(=O)[C@H](CCC(=O)O)NC(=O)[C@H](CCC(N)=O)NC(=O)[C@H](Cc1c[nH]c2ccccc12)NC(C)=O)[C@@H](C)CC)[C@@H](C)O)C(=O)N[C@@H](CCC(N)=O)C(=O)N[C@@H](CCC(N)=O)C(=O)N[C@@H](CCC(=O)O)C(=O)N[C@@H](CCCCN)C(=O)N[C@@H](CC(N)=O)C(=O)N[C@@H](CCC(=O)O)C(=O)N[C@@H](Cc1ccc(O)cc1)C(=O)N[C@@H](CCC(=O)O)C(=O)N[C@@H](CC(C)C)C(=O)N[C@@H](CCC(N)=O)C(=O)N[C@@H](CCCCN)C(=O)N[C@@H](CC(C)C)C(=O)N[C@@H](CC(=O)O)C(=O)N[C@@H](CCCCN)C(=O)N[C@@H](Cc1c[nH]c2ccccc12)C(=O)N[C@@H](C)C(=O)N[C@@H](CO)C(=O)N[C@@H](CC(C)C)C(=O)N[C@@H](Cc1c[nH]c2ccccc12)C(=O)N[C@@H](CCC(=O)O)C(=O)N[C@@H](Cc1c[nH]c2ccccc12)C(=O)N[C@@H](Cc1ccccc1)C(N)=O [T1249]
acute toxicity (death within 24 hours) [1]: not acutely toxic
cytotoxicity in vitro (Molt 4, CEM cells): No overt evidence of T1249 cytotoxicity
